Laboratory results reported in patent publication US20230117034A1, “PYRAZOLOTRIAZINES” (Bayer Aktiengesellschaft, priority 2019, published 2023).

How the values were obtained:
[1] = biological target: T1, CDK2/CycE (Homo sapiens, UniProt P24941); experiment: CDK2/CycE kinase assay (TR-FRET, 2 mM ATP); assay type: biochemical; conditions: 2 mM ATP (high ATP); median; read-out: CDK2/CyclinE, 2 mM ATP (high ATP), IC50 (median)
T1 construct: purchased ProQinase GmbH (Freiburg, Germany); host or cells: insect cells (Sf9)
Method in brief: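 Biotin-peptide phosphorylation (0.75 µM substrate, 2 mM ATP final, 25 min, 22 °C) by Sf9-expressed GST-CDK2/GST-CycE, after a 15-min compound pre-binding step. Inhibition scaled between enzyme-free (100%) and uninhibited (0%) wells.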

[2] = biological target: CDK12/CycK (Homo sapiens, UniProt Q9NYV4); experiment: CDK12/CycK high ATP kinase assay (TR-FRET, 2 mM ATP); assay type: biochemical; conditions: 2 mM ATP (high ATP); median; read-out: CDK12/CyclinK, 2 mM ATP (high ATP), IC50-[mol/l] (median)
Method in brief: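 Read-out is TR-FRET (Eu-anti-rabbit IgG, anti-phospho-c-Myc Ser62 antibody, streptavidin-XL665) after EDTA stop. Reaction ran 60 min at 22 °C using 1 µM biotin-peptide and high ATP (2 mM) with roughly 0.75 nM recombinant CDK12/CycK, after 15 min compound pre-binding; normalised emission ratios yield IC50.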

Sequence of CDK12/CycK (Q9NYV4 with tags, fused parts or gaps): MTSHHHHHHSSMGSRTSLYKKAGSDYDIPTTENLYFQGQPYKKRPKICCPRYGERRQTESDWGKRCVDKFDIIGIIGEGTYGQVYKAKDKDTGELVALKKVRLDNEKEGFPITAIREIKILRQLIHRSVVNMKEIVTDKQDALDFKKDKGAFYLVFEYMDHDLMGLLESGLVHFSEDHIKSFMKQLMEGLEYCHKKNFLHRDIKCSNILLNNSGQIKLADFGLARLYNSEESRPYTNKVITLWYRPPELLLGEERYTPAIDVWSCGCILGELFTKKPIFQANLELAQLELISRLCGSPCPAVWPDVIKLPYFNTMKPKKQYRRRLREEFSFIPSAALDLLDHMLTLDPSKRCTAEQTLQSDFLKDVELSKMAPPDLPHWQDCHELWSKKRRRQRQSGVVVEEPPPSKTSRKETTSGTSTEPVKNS
Sequence of CDK12/CycK (O75909 1-300 partner limits assumed): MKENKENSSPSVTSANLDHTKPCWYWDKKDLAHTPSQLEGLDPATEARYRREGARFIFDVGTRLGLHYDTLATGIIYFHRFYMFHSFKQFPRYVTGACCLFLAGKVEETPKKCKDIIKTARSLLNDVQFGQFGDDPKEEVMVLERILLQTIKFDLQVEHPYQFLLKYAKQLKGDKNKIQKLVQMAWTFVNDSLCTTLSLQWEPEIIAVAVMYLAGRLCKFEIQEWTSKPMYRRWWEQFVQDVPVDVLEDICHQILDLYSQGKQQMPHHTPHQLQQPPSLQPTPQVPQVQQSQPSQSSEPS

Row | Compound | IC50 [1] [µM] | IC50 [2] [nM]
1 | CN(c1nc(NCc2nc3ccccc3[nH]2)n2ncc(Br)c2n1)[C@H]1C[C@@H](O)C1 [Example 364, cis-3-[(4-{[(1H-benzimidazol-2-yl)methyl]amino}-8-bromopyrazolo[1,5-a][1,3,5]triazin-2-yl)(methyl)amino]cyclobutan-1-ol] | 2.07 | 6670
2 | CN(CC(C)(C)O)c1nc(NCc2nc3c(F)cccc3[nH]2)n2ncc(Cl)c2n1 [Example 366, 1-[(8-chloro-4-{[(4-fluoro-1H-benzimidazol-2-yl)methyl]amino}pyrazolo[1,5-a][1,3,5]triazin-2-yl)(methyl)amino]-2-methylpropan-2-ol] | 5.57 | 1810
3 | CC[C@@H](CO)Nc1nc(NCc2nc3ccccc3[nH]2)n2ncc(Br)c2n1 [Example 367, (2S)-2-[(4-{[(1H-benzimidazol-2-yl)methyl]amino}-8-bromopyrazolo[1,5-a][1,3,5]triazin-2-yl)amino]butan-1-ol] | 0.573 | 2930
4 | CC[C@H](CO)Nc1nc(NCc2nc3ccccc3[nH]2)n2ncc(Br)c2n1 [Example 368, (2R)-2-[(4-{[(1H-benzimidazol-2-yl)methyl]amino}-8-bromopyrazolo[1,5-a][1,3,5]triazin-2-yl)amino]butan-1-ol] | 0.885 | 4840
5 | Fc1c(Cl)ccc2[nH]c(CNc3nc(N4CCOCC4)nc4c(C5CC5)cnn34)nc12 [Example 370, N-[(5-chloro-4-fluoro-1H-benzimidazol-2-yl)methyl]-8-cyclopropyl-2-(morpholin-4-yl)pyrazolo[1,5-a][1,3,5]triazin-4-amine] | > 20 | 169
6 | CN(CC(C)(C)O)c1nc(NCc2nc3c(F)c(Cl)ccc3[nH]2)n2ncc(Br)c2n1 [Example 374, 1-[(8-bromo-4-{[(5-chloro-4-fluoro-1H-benzimidazol-2-yl)methyl]amino}pyrazolo[1,5-a][1,3,5]triazin-2-yl)(methyl)amino]-2-methylpropan-2-ol] | 3.12 | 155
7 | FC(F)(F)Oc1cccc2[nH]c(CNc3nc(N4CCOCC4)nc4c(Br)cnn34)nc12 [Example 375, 8-bromo-2-(morpholin-4-yl)-N-{[4-(trifluoromethoxy)-1H-benzimidazol-2-yl]methyl}pyrazolo[1,5-a][1,3,5]triazin-4-amine] | 11.9 | 4560
8 | CN1CCN(c2nc(NCc3nc4c(OC(F)(F)F)cccc4[nH]3)n3ncc(Br)c3n2)CC1 [Example 376, 8-bromo-2-(4-methylpiperazin-1-yl)-N-{[4-(trifluoromethoxy)-1H-benzimidazol-2-yl]methyl}pyrazolo[1,5-a][1,3,5]triazin-4-amine] | > 20 | > 20000
9 | CN1CCN(c2nc(NCc3nc4cc(OC(F)(F)F)ccc4[nH]3)n3ncc(Br)c3n2)CC1 [Example 377, 8-bromo-2-(4-methylpiperazin-1-yl)-N-{[5-(trifluoromethoxy)-1H-benzimidazol-2-yl]methyl}pyrazolo[1,5-a][1,3,5]triazin-4-amine] | 17.1 | 5090
10 | CN(CC(C)(C)O)c1nc(NCc2nc3cc(OC(F)(F)F)ccc3[nH]2)n2ncc(Br)c2n1 [Example 378, 1-{[8-bromo-4-({[5-(trifluoromethoxy)-1H-benzimidazol-2-yl]methyl}amino)pyrazolo[1,5-a][1,3,5]triazin-2-yl](methyl)amino}-2-methylpropan-2-ol] | 8.11 | 440
11 | Fc1c(Cl)ccc2[nH]c(CNc3nc(N4CC5CCC(C4)N5)nc4c(C5CC5)cnn34)nc12 [Example 379, N-[(5-chloro-4-fluoro-1H-benzimidazol-2-yl)methyl]-8-cyclopropyl-2-(3,8-diazabicyclo[3.2.1]octan-3-yl)pyrazolo[1,5-a][1,3,5]triazin-4-amine] | 14.3 | 528
12 | Fc1c(Cl)ccc2[nH]c(CNc3nc(N4CC5CCC(C4)N5)nc4c(Br)cnn34)nc12 [Example 380, 8-bromo-N-[(5-chloro-4-fluoro-1H-benzimidazol-2-yl)methyl]-2-(3,8-diazabicyclo[3.2.1]octan-3-yl)pyrazolo[1,5-a][1,3,5]triazin-4-amine] | 9.26 | 1020
13 | FC(F)(F)Oc1cccc2[nH]c(CNc3nc(N4C[C@H]5CC[C@@H](C4)N5)nc4c(Br)cnn34)nc12 [Example 381, 8-bromo-2-[(1R,5S)-3,8-diazabicyclo[3.2.1]octan-3-yl]-N-{[4-(trifluoromethoxy)-1H-benzimidazol-2-yl]methyl}pyrazolo[1,5-a][1,3,5]triazin-4-amine] | > 20 | 5910
14 | FC(F)(F)Oc1ccc2[nH]c(CNc3nc(N4C[C@H]5CC[C@@H](C4)N5)nc4c(Br)cnn34)nc2c1 [Example 382, 8-bromo-2-[(1R,5S)-3,8-diazabicyclo[3.2.1]octan-3-yl]-N-{[5-(trifluoromethoxy)-1H-benzimidazol-2-yl]methyl}pyrazolo[1,5-a][1,3,5]triazin-4-amine] | 14.2 | 823
15 | CN1C2CCC1CN(c1nc(NCc3nc4c(F)cccc4[nH]3)n3ncc(C(F)(F)F)c3n1)C2 [Example 384, N-[(4-fluoro-1H-benzimidazol-2-yl)methyl]-2-(8-methyl-3,8-diazabicyclo[3.2.1]octan-3-yl)-8-(trifluoromethyl)pyrazolo[1,5-a][1,3,5]triazin-4-amine] | > 20 | 8110
16 | Fc1cccc(-c2nnc(CNc3nc(N4CCOCC4)nc4c(C(F)(F)F)cnn34)[nH]2)c1 [Example 385, N-{[5-(3-fluorophenyl)-4H-1,2,4-triazol-3-yl]methyl}-2-(morpholin-4-yl)-8-(trifluoromethyl)pyrazolo[1,5-a][1,3,5]triazin-4-amine] | 1.81 | 280
17 | Fc1cc(F)cc(-c2nnc(CNc3nc(N4CCOCC4)nc4c(C(F)(F)F)cnn34)[nH]2)c1 [Example 386, N-{[5-(3,5-difluorophenyl)-4H-1,2,4-triazol-3-yl]methyl}-2-(morpholin-4-yl)-8-(trifluoromethyl)pyrazolo[1,5-a][1,3,5]triazin-4-amine] | 1.45 | 115

Next, values leading:

Row | IC50 [1] [µM] | IC50 [2] [nM] | Compound
18 | 1.74 | 5850 | CN(c1nc(NCc2nc3ccccc3[nH]2)n2ncc(Br)c2n1)[C@H]1C[C@H](O)C1 [Example 365, trans-3-[(4-{[(1H-benzimidazol-2-yl)methyl]amino}-8-bromopyrazolo[1,5-a][1,3,5]triazin-2-yl)(methyl)amino]cyclobutan-1-ol]
19 | 10.5 | > 20000 | CC[C@H](COC)Nc1nc(NCc2nc3ccccc3[nH]2)n2ncc(Br)c2n1 [Example 369, N4-[(1H-benzimidazol-2-yl)methyl]-8-bromo-N2-[(2R)-1-methoxybutan-2-yl]pyrazolo[1,5-a][1,3,5]triazine-2,4-diamine]
20 | > 20 | 5250 | CN1CCN(c2nc(NCc3nc4c(F)c(Cl)ccc4[nH]3)n3ncc(C4CC4)c3n2)CC1 [Example 371, N-[(5-chloro-4-fluoro-1H-benzimidazol-2-yl)methyl]-8-cyclopropyl-2-(4-methylpiperazin-1-yl)pyrazolo[1,5-a][1,3,5]triazin-4-amine]
21 | 3.65 | 269 | Fc1c(Cl)ccc2[nH]c(CNc3nc(N4CCOCC4)nc4c(Br)cnn34)nc12 [Example 372, 8-bromo-N-[(5-chloro-4-fluoro-1H-benzimidazol-2-yl)methyl]-2-(morpholin-4-yl)pyrazolo[1,5-a][1,3,5]triazin-4-amine]
22 | 7.5 | 3060 | CN1CCN(c2nc(NCc3nc4c(F)c(Cl)ccc4[nH]3)n3ncc(Br)c3n2)CC1 [Example 373, 8-bromo-N-[(5-chloro-4-fluoro-1H-benzimidazol-2-yl)methyl]-2-(4-methylpiperazin-1-yl)pyrazolo[1,5-a][1,3,5]triazin-4-amine]
23 | 5.35 | 233 | CN(CC(C)(C)O)c1nc(NCc2nc3c(F)c(Cl)ccc3[nH]2)n2ncc(C3CC3)c2n1 [Example 387, 1-[(4-{[(5-chloro-4-fluoro-1H-benzimidazol-2-yl)methyl]amino}-8-cyclopropylpyrazolo[1,5-a][1,3,5]triazin-2-yl)(methyl)amino]-2-methylpropan-2-ol]
24 | > 20 | 6840 | C[C@H]1CN(C)CCN1c1nc(NCc2nc3c(F)cccc3[nH]2)n2ncc(C(F)(F)F)c2n1 [Example 388, 2-[(2S)-2,4-dimethylpiperazin-1-yl]-N-[(4-fluoro-1H-benzimidazol-2-yl)methyl]-8-(trifluoromethyl)pyrazolo[1,5-a][1,3,5]triazin-4-amine]
25 | > 20 | > 20000 | CN1CCC(Oc2nc(NCc3nc4ccccc4[nH]3)n3ncc(Br)c3n2)CC1 [Example 389, N-[(1H-benzimidazol-2-yl)methyl]-8-bromo-2-[(1-methylpiperidin-4-yl)oxy]pyrazolo[1,5-a][1,3,5]triazin-4-amine]
26 | > 20 | > 20000 | CN1CCCN(c2nc(NCc3nc4ccccc4[nH]3)n3ncc(Br)c3n2)CC1 [Example 390, N-[(1H-benzimidazol-2-yl)methyl]-8-bromo-2-(4-methyl-1,4-diazepan-1-yl)pyrazolo[1,5-a][1,3,5]triazin-4-amine]
